Ten molecules from patent US8063051B2, “9-substituted-8-oxo-adenine compounds as toll-like receptor (TLR7) modulators” (AstraZeneca AB, priority 2007, dated 2011) can be followed below.

The target of this test is T1, Recombinant human TLR7 (Homo sapiens, UniProt Q9NYK1).
T1 construct: expressed in transfected cells; host or cells: HEK293 cell line stably expressing the pNiFty2-SEAP reporter plasmid; TLR7 in vector pUNO, blasticidin selection
T1 sequence (Q9NYK1 27-1049): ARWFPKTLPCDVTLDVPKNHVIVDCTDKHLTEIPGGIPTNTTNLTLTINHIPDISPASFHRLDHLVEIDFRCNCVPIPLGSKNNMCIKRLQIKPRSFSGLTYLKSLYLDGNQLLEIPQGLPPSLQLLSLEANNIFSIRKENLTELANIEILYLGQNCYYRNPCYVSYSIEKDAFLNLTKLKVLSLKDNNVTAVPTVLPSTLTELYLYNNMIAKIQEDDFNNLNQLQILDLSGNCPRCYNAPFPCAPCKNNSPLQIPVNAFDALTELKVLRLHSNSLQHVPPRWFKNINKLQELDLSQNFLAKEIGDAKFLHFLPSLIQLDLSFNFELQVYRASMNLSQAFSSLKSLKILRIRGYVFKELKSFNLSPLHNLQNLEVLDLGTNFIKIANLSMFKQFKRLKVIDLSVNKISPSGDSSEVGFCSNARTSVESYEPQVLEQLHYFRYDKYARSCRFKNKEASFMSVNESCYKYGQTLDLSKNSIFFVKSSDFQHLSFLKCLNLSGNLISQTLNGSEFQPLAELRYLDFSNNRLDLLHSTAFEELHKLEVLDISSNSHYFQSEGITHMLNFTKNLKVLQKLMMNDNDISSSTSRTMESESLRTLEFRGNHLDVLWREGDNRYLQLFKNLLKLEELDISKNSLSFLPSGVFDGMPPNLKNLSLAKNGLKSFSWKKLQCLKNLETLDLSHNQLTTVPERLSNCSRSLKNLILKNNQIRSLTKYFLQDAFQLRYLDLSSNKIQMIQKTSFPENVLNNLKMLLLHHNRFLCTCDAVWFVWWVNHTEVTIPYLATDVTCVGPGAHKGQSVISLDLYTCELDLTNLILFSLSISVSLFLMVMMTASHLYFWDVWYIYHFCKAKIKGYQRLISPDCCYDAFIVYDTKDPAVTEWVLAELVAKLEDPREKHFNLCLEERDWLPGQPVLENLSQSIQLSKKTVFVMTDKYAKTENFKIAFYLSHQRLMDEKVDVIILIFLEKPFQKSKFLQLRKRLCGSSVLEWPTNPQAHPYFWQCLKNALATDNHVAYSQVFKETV
As to the kind of experiment: Human TLR7 assay (SEAP reporter in HEK293 cells). It is filed as cell-based. To be noted: HEK293 cell line stably expressing human TLR7 and pNiFty2-SEAP reporter; SEAP induction after overnight incubation at 37° C., 0.1% (v/v) DMSO. An excerpt: Recombinant human TLR7 was stably expressed in a HEK293 cell line already stably expressing the pNiFty2-SEAP reporter plasmid; integration of the reporter gene was maintained by selection with the antibiotic zeocin. The most common variant sequence of human TLR7 (represented by the EMBL sequence AF240467) was cloned into the mammalian cell expression vector pUNO and transfected into this reporter cell-line. Transfectants with stable expression were selected using the antibiotic blasticidin. In this reporter cell-line, expression of secreted alkaline phosphatase (SEAP) is controlled by an NFkB/ELAM-1 composite promoter comprising five NFkB sites combined with the proximal ELAM-1 promoter. TLR signaling leads to the translocation of NFkB and activation of the promoter results in expression of the SEAP gene. TLR7-specific activation was assessed by determining the level of SEAP produced following overnight incubation of the cells at 37° C. with the standard compound in the presence of 0.1% (v/v) dimethylsulfoxide (DMSO). Concentration dependent induction of SEAP production by compounds was expressed as the concentration of compound which produced half of the maximal level of SEAP induction for that compound (pEC50).

Usually EC50 stands for the concentration that produces a half-maximal response. For the molecule `CCCCOc1nc(N)c2[nH]c(=O)n(CCCN(Cc3ccccc3)C(=O)CCN(C)C)c2n1` [Example 10, N-[3-(6-Amino-2-butoxy-8-oxo-7,8-dihydro-9H-purin-9-yl)propyl]-N-benzyl-N^3,N^3-dimethyl-β-alaninamide], the EC50 was 31.6 nM.
In the case of `CCCCOc1nc(N)c2[nH]c(=O)n(CCCN(Cc3ccccc3)C(=O)CCc3cnccn3)c2n1` [Example 9, N-[3-(6-Amino-2-butoxy-8-oxo-7,8-dihydro-9H-purin-9-yl)propyl]-N-benzyl-3-pyrazin-2-ylpropanamide] it was 50.1 nM; in that of `CCCCOc1nc(N)c2[nH]c(=O)n(CCCN(Cc3ccccc3)C(C)=O)c2n1` [Example 1, N-[3-(6-Amino-2-butoxy-8-oxo-7,8-dihydro-9H-purin-9-yl)propyl]-N-benzylacetamide], 63.1 nM; in that of `CCCCOc1nc(N)c2[nH]c(=O)n(CCCN(Cc3ccccc3)C(=O)Cn3nc(C)nc3C)c2n1` [Example 8, N-[3-(6-Amino-2-butoxy-8-oxo-7,8-dihydro-9H-purin-9-yl)propyl]-N-benzyl-2-(3,5-dimethyl-1H-1,2,4-triazol-1-yl)acetamide], 158 nM.
Then `CCCCOc1nc(N)c2[nH]c(=O)n(CCCN(Cc3ccccc3)C(=O)CCOC)c2n1` [Example 4, N-[3-(6-Amino-2-butoxy-8-oxo-7,8-dihydro-9H-purin-9-yl)propyl]-N-benzyl-3-methoxypropanamide], with 79.4 nM.
`CCCCOc1nc(N)c2[nH]c(=O)n(CCCN(Cc3ccccc3)C(=O)Cc3ccc(S(C)(=O)=O)cc3)c2n1` [Example 6, N-[3-(6-Amino-2-butoxy-8-oxo-7,8-dihydro-9H-purin-9-yl)propyl]-N-benzyl-2-[4-(methylsulfonyl)phenyl]acetamide]: the EC50 is 79.4 nM.
In the case of `CCCCOc1nc(N)c2[nH]c(=O)n(CCCN(Cc3ccccc3)C(=O)CCC(=O)OC)c2n1` [Example 3, Methyl 4-[[3-(6-amino-2-butoxy-8-oxo-7,8-dihydro-9H-purin-9-yl)propyl](benzyl)amino]-4-oxobutanoate] it was 39.8 nM; in that of `CCCCOc1nc(N)c2[nH]c(=O)n(CCCN(Cc3ccccc3)C(=O)CCC(=O)N(C)C)c2n1` [Example 5, N-[3-(6-Amino-2-butoxy-8-oxo-7,8-dihydro-9H-purin-9-yl)propyl]-N-benzyl-N′,N′-dimethylsuccinamide], 79.4 nM.
Then `CCCCOc1nc(N)c2[nH]c(=O)n(CCCN(Cc3ccccc3)C(=O)CN3CCN(Cc4ccccc4)CC3)c2n1` [Example 7, N-[3-(6-Amino-2-butoxy-8-oxo-7,8-dihydro-9H-purin-9-yl)propyl]-N-benzyl-2-(4-benzylpiperazin-1-yl)acetamide], with 7.94 nM.
Consider `CCCCOc1nc(N)c2[nH]c(=O)n(CCCN(Cc3ccccc3)C(=O)COC)c2n1` [Example 2, N-[3-(6-Amino-2-butoxy-8-oxo-7,8-dihydro-9H-purin-9-yl)propyl]-N-benzyl-2-methoxyacetamide], for which the EC50 is 50.1 nM.
